Key:
Settings in all cases: exposure time: 72 h
E13 [1] = patient-derived glioblastoma stem cells of classical subtype; assay: surviving fraction (nuclei count normalised to DMSO); higher = more cells surviving (less toxic)
E21 [2] = patient-derived glioblastoma stem cells of mesenchymal subtype; assay: as above
E28 [3] = patient-derived glioblastoma stem cells of classical subtype; assay: as above
E31 [4] = patient-derived glioblastoma stem cells of proneural subtype; assay: as above
E34 [5] = patient-derived glioblastoma stem cells of proneural subtype; assay: as above
E57 [6] = patient-derived glioblastoma stem cells of mesenchymal subtype; assay: as above
FT3469 [7] = normal neural stem cell line; assay: as above
E13 [8] = assay: phenotypic distance (Euclidean, principal components) from DMSO controls (arbitrary units); higher = stronger morphological change
E21 [9] = assay: as above
E28 [10] = assay: as above
E31 [11] = assay: as above
E34 [12] = assay: as above
E57 [13] = assay: as above
FT3469 [14] = assay: as above
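Throughout, for phenotypic distance (Euclidean, principal components) from DMSO controls: cell Painting imaging in 384-well plates, CellProfiler features reduced to at least 20 principal components, Euclidean distance versus same-plate DMSO vehicle wells (0.1% v/v), median over six images per well.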
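Throughout, for surviving fraction (nuclei count normalised to DMSO): nuclei counted by high-content imaging of Hoechst-stained cells in laminin-coated 384-well plates, relative to 0.1% DMSO vehicle wells, with staurosporine as cell-death control.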

O=C1c2c(O)ccc(O)c2C(=O)c2c(NCCNCCO)ccc(NCCNCCO)c21 [Mitoxantrone]
Settings	phenotypic distance	surviving fraction
E13 [1], 4.1 nM	–	0.526
E13 [1], 12.3 nM	–	0.451
E13 [1], 37 nM	–	0.422
E13 [1], 111.1 nM	–	0.338
E13 [1], 333.3 nM	–	0.279
E13 [1], 1000 nM	–	0.23
E13 [1], 3000 nM	–	0.219
E13 [8], 4.1 nM	4.74	–
E13 [8], 12.3 nM	5.62	–
E13 [8], 37 nM	6.07	–
E13 [8], 111.1 nM	6.02	–
E13 [8], 333.3 nM	6.18	–
E13 [8], 1000 nM	6.49	–
E13 [8], 3000 nM	6.08	–
E21 [2], 4.1 nM	–	0.689
E21 [2], 12.3 nM	–	0.608
E21 [2], 37 nM	–	0.448
E21 [2], 111.1 nM	–	0.229
E21 [2], 333.3 nM	–	0.207
E21 [2], 1000 nM	–	0.209
E21 [2], 3000 nM	–	0.189
E21 [9], 4.1 nM	2.94	–
E21 [9], 12.3 nM	4.27	–
E21 [9], 37 nM	6.11	–
E21 [9], 111.1 nM	6.48	–
E21 [9], 333.3 nM	6.79	–
E21 [9], 1000 nM	6.1	–
E21 [9], 3000 nM	5.74	–
E28 [3], 4.1 nM	–	0.476
E28 [3], 12.3 nM	–	0.359
E28 [3], 37 nM	–	0.358
E28 [3], 111.1 nM	–	0.262
E28 [3], 333.3 nM	–	0.313
E28 [3], 1000 nM	–	0.286
E28 [3], 3000 nM	–	0.264
E28 [10], 4.1 nM	3.3	–
E28 [10], 12.3 nM	3.24	–
E28 [10], 37 nM	3.23	–
E28 [10], 111.1 nM	3.7	–
E28 [10], 333.3 nM	3.72	–
E28 [10], 1000 nM	3.17	–
E28 [10], 3000 nM	2.86	–
E31 [4], 4.1 nM	–	0.243
E31 [4], 12.3 nM	–	0.219
E31 [4], 37 nM	–	0.311
E31 [4], 111.1 nM	–	0.216
E31 [4], 333.3 nM	–	0.218
E31 [4], 1000 nM	–	0.127
E31 [4], 3000 nM	–	0.142
E31 [11], 4.1 nM	2.71	–
E31 [11], 12.3 nM	3.14	–
E31 [11], 37 nM	2.43	–
E31 [11], 111.1 nM	2.42	–
E31 [11], 333.3 nM	2.72	–
E31 [11], 1000 nM	4.39	–
E31 [11], 3000 nM	4.07	–
E34 [5], 4.1 nM	–	0.578
E34 [5], 12.3 nM	–	0.494
E34 [5], 37 nM	–	0.578
E34 [5], 111.1 nM	–	0.615
E34 [5], 333.3 nM	–	0.547
E34 [5], 1000 nM	–	0.564
E34 [5], 3000 nM	–	0.56
E34 [12], 4.1 nM	4.38	–
E34 [12], 12.3 nM	4.62	–
E34 [12], 37 nM	4.33	–
E34 [12], 111.1 nM	2.84	–
E34 [12], 333.3 nM	2.54	–
E34 [12], 1000 nM	1.99	–
E34 [12], 3000 nM	2.83	–
E57 [6], 4.1 nM	–	0.245
E57 [6], 12.3 nM	–	0.2
E57 [6], 37 nM	–	0.174
E57 [6], 111.1 nM	–	0.165
E57 [6], 333.3 nM	–	0.161
E57 [6], 1000 nM	–	0.159
E57 [6], 3000 nM	–	0.17
E57 [13], 4.1 nM	8.68	–
E57 [13], 12.3 nM	9.84	–
E57 [13], 37 nM	8.24	–
E57 [13], 111.1 nM	6.95	–
E57 [13], 333.3 nM	7.05	–
E57 [13], 1000 nM	7.26	–
E57 [13], 3000 nM	6.66	–
FT3469 [7], 4.1 nM	–	0.595
FT3469 [7], 12.3 nM	–	0.645
FT3469 [7], 37 nM	–	0.657
FT3469 [7], 111.1 nM	–	0.604
FT3469 [7], 333.3 nM	–	0.639
FT3469 [7], 1000 nM	–	0.604
FT3469 [7], 3000 nM	–	0.362
FT3469 [14], 4.1 nM	1.61	–
FT3469 [14], 12.3 nM	1.65	–
FT3469 [14], 37 nM	1.7	–
FT3469 [14], 111.1 nM	1.36	–
FT3469 [14], 333.3 nM	1.3	–
FT3469 [14], 1000 nM	2.01	–
FT3469 [14], 3000 nM	3.46	–

CN(c1nccc(=O)[nH]1)C1CCN(c2nc3ccccc3n2Cc2ccc(F)cc2)CC1 [Mizolastine]
Settings	phenotypic distance	surviving fraction
E13 [1], 4.1 nM	–	0.797
E13 [1], 12.3 nM	–	0.967
E13 [1], 37 nM	–	0.849
E13 [1], 111.1 nM	–	0.869
E13 [1], 333.3 nM	–	0.989
E13 [1], 1000 nM	–	0.896
E13 [1], 3000 nM	–	0.956
E13 [8], 4.1 nM	0.868	–
E13 [8], 12.3 nM	0.459	–
E13 [8], 37 nM	0.939	–
E13 [8], 111.1 nM	0.783	–
E13 [8], 333.3 nM	0.597	–
E13 [8], 1000 nM	0.555	–
E13 [8], 3000 nM	0.59	–
E21 [2], 4.1 nM	–	1
E21 [2], 12.3 nM	–	1
E21 [2], 37 nM	–	0.949
E21 [2], 111.1 nM	–	1.03
E21 [2], 333.3 nM	–	1.03
E21 [2], 1000 nM	–	1.01
E21 [2], 3000 nM	–	1.09
E21 [9], 4.1 nM	0.704	–
E21 [9], 12.3 nM	0.468	–
E21 [9], 37 nM	0.444	–
E21 [9], 111.1 nM	0.765	–
E21 [9], 333.3 nM	0.434	–
E21 [9], 1000 nM	0.621	–
E21 [9], 3000 nM	0.543	–
E28 [3], 4.1 nM	–	1.08
E28 [3], 12.3 nM	–	1.1
E28 [3], 37 nM	–	1.1
E28 [3], 111.1 nM	–	1.19
E28 [3], 333.3 nM	–	1.06
E28 [3], 1000 nM	–	1.13
E28 [3], 3000 nM	–	0.972
E28 [10], 4.1 nM	0.853	–
E28 [10], 12.3 nM	5.48	–
E28 [10], 37 nM	0.52	–
E28 [10], 111.1 nM	0.84	–
E28 [10], 333.3 nM	0.698	–
E28 [10], 1000 nM	0.693	–
E28 [10], 3000 nM	0.97	–
E31 [4], 4.1 nM	–	1.01
E31 [4], 12.3 nM	–	1.16
E31 [4], 37 nM	–	0.825
E31 [4], 111.1 nM	–	1.19
E31 [4], 333.3 nM	–	0.944
E31 [4], 1000 nM	–	1.18
E31 [4], 3000 nM	–	0.875
E31 [11], 4.1 nM	0.567	–
E31 [11], 12.3 nM	0.802	–
E31 [11], 37 nM	1.44	–
E31 [11], 111.1 nM	0.455	–
E31 [11], 333.3 nM	0.814	–
E31 [11], 1000 nM	0.555	–
E31 [11], 3000 nM	0.652	–
E34 [5], 4.1 nM	–	1.16
E34 [5], 12.3 nM	–	0.983
E34 [5], 37 nM	–	1.01
E34 [5], 111.1 nM	–	0.939
E34 [5], 333.3 nM	–	1.04
E34 [5], 1000 nM	–	1.1
E34 [5], 3000 nM	–	0.941
E34 [12], 4.1 nM	0.476	–
E34 [12], 12.3 nM	1.2	–
E34 [12], 37 nM	1.86	–
E34 [12], 111.1 nM	0.66	–
E34 [12], 333.3 nM	0.677	–
E34 [12], 1000 nM	0.599	–
E34 [12], 3000 nM	0.698	–
E57 [6], 4.1 nM	–	0.99
E57 [6], 12.3 nM	–	1.02
E57 [6], 37 nM	–	1.06
E57 [6], 111.1 nM	–	0.976
E57 [6], 333.3 nM	–	1.05
E57 [6], 1000 nM	–	1.05
E57 [6], 3000 nM	–	1.06
E57 [13], 4.1 nM	0.544	–
E57 [13], 12.3 nM	0.715	–
E57 [13], 37 nM	3.66	–
E57 [13], 111.1 nM	0.766	–
E57 [13], 333.3 nM	0.54	–
E57 [13], 1000 nM	0.624	–
E57 [13], 3000 nM	0.531	–
FT3469 [7], 4.1 nM	–	1.15
FT3469 [7], 12.3 nM	–	0.975
FT3469 [7], 37 nM	–	0.987
FT3469 [7], 111.1 nM	–	1.06
FT3469 [7], 333.3 nM	–	1.03
FT3469 [7], 1000 nM	–	0.94
FT3469 [7], 3000 nM	–	1.15
FT3469 [14], 4.1 nM	0.538	–
FT3469 [14], 12.3 nM	1.14	–
FT3469 [14], 37 nM	0.386	–
FT3469 [14], 111.1 nM	0.797	–
FT3469 [14], 333.3 nM	0.453	–
FT3469 [14], 1000 nM	0.544	–
FT3469 [14], 3000 nM	0.613	–
